Reference: patent US20130023504A1, “Modulation of Prostaglandin/Cyclooxygenase Metabolic Pathways” (HUNTER-FLEMING LIMITED, priority 2006, published 2013)
Marks after values point to notes of the source that are not given here.

Test system: rats with DSS-induced colitis
Assay: DSS-induced colitis in rats, 7-day i.p. pre-treatment
Format: in vivo, rat
Conditions: for Body weight: DSS (5%) day 7-14
Excerpt: All experimental protocols and procedures were in agreement with the directive 86/609/CEE of the European Community, for the use of laboratory animals. Male Wistar rats (180-200 g), purchased from Charles River (L'Arbresle, France) were fed with rodent laboratory chow and were given water ad libitum.
After a 7-day adaptation period, animals were divided into two control groups (sham-control and 7β-hydroxy-EPIA-treated control group and two colitis groups (colitis and 7β-hydroxy-EPIA-treated colitis). 7β-Hydroxy-EPIA (0.01, 0.1, and 1 mg/kg body weight dissolved in DMSO) or DMSO alone (vehicle) was administered i.p. once a day for 7 days, from day 0 to day 7. Colitis was induced from day 7 to 14 by addition of DSS (molecular weight 36-50 kDa; MP Biomedicals, France) to drinking water. The two control groups received tap water only.
At day 9, 11, 13, 14, body weight, colon length, stool consistency, were recorded and fresh rectal bleeding evaluated by ocular inspection. The severity of colonic damage was blindly scored as described by Mabley et al., 2001, Inflamm. Res.; 50: 561-569) (0: well-formed pellets and no colon damage; 1: colon with a small amount of blood present mixed with feces; 2: colon with large amount of blood present with faeces; 3: colon filled with blood and no faeces).
A portion of the proximal colon (1 cm) was fixed in 4% formaldehyde (Labonord, Templemars, France) and embedded in paraffin. Tissue sections (5 μm) were prepared, thereafter cleared, hydrated and stained either with hematoxylin/eosin or with Alcian blue according to standard protocols for histological evaluation of colonic damage and mucus goblet cells content, respectively.
The colon was opened along the mesenteric border, and the epithelial cells were scrapped away with the blunt edge of a glass slide then weighed, washed and centrifuged. The pellet was homogenized in 9 volumes TKE buffer (10 mM Tris-HCl; 150 mM KCl; 1 mM EDTA; 0.25 mM PMSF, pH 7.4) and then frozen at −80° C. until further use. The protein content of homogenates were measured according to Lowry et al. (J Biol Chem 1951; 193: 265-74).
MPO activity was assessed in homogenates using the o-dianisidine method of Krawisz et al. (Gastroenterology 1984; 87(6):1344-50) with the modifications of Pelissier et al. (Steroids 2006; 71(3):240-8). MPO activity was expressed as the amount of enzyme necessary to produce a per minute change in absorbance at 460 nm using the extinction coefficient for oxidized o-dianisidine (1.13×10^4 mol^−1.cm^−1).
Lipid peroxidation (Tbars) was measured by a modification by Albrecht et al., (1992, Toxicol. Lett; 63: 91-96) of the method described by Ohkawa et al. (Anal Biochem 1979; 95:315-58). Absorbance of the red 1:2 adduct malondialdehyde-thiobarbituric acid (Sigma-Aldrich, St Quentin-Fallavier, France) was measured at 532 nm (extinction coefficient used: 0.156 μmol^−1 cm^−1). The carbonyl contents in oxidized proteins (Prot CO) were assessed by the method of Levine et al. (Methods Enzymol 1990; 186:464-78). The non-protein sulfhydryl group content (mostly GSH) was taken as the anti-oxidant defense marker in homogenates and determined by the method of Sedlak and Lindsay (Anal Biochem 1968; 25(1):192-205).
Commercially available EIA kits were used for the determination of PGE2 levels (Oxford Biomedical Research, UK) and 15d-PGJ2 levels (Assay designs, Euromedex, France) in colonic supernatants obtained from fresh homogenates. Measurement of PGD2 levels was obtained using the prostaglandin D2-MOX EIA kit (Cayman Chemical, Euromedex). In this case, and prior to assay, the fresh samples were immediately treated with the MOX-HCl reagent which converted PGD2 into PGD2-MOX, thus preventing any further chemical degradation.
Total RNA from fresh colonic samples (300 mg) was extracted using Trizol Reagent (Invitrogen, Cergy-Pontoise, France). […]

With `CC12CCC3C(C1CCC2=O)[C@@H](O)C[C@H]1C[C@@H](O)CCC31C` (stereo partly drawn) [Compound 7β-OH-EPIA, 7β-hydroxy-EPIAndrosterone] the “colitis damage and tissue inflammation” value (0.01 mg/kg) was “completely prevented”, the Body weight (0.01 mg/kg body weight i.p. day 0-7, day 14) was 297.5 ± 9.5^a g and the “DSS-induced production of colonic PGE2” value (0.01 mg/kg from D0 to D7) was “completely prevented”. The “colonic level of 15d-PGJ2” value (0.01 mg/kg from D0 to D7, DSS) was “dramatically increasing”, the Colon length (0.01 mg/kg, day 14) was 16 ± 0.01^c cm and the Epididymis weight (0.01 mg/kg, day 14) was 2.5 ± 0.03^a g. For the same compound, the Liver weight (0.01 mg/kg, day 14) was 12.1 ± 0.3^a g, the Spleen weight (0.01 mg/kg, day 14) was 0.8 ± 0.02^a g and the Body weight (0.1 mg/kg body weight i.p. day 0-7, day 14) was 272.1 ± 6^b g. The Colon length (0.1 mg/kg, day 14) was 15.6 ± 0.3^c cm, the Epididymis weight (0.1 mg/kg, day 14) was 1.9 ± 0.14^b g and the Liver weight (0.1 mg/kg, day 14) was 12.3 ± 0.6^a g. For the same compound, the Spleen weight (0.1 mg/kg, day 14) was 1.03 ± 0.2^a g, the Body weight (1 mg/kg body weight i.p. day 0-7, day 14) was 267.3 ± 7.7^b g and the Colon length (1 mg/kg, day 14) was 14.2 ± 0.6^b cm. The Epididymis weight (1 mg/kg, day 14) was 1.9 ± 0.1^b g, the Liver weight (1 mg/kg, day 14) was 11.9 ± 0.4^a g and the Spleen weight (1 mg/kg, day 14) was 0.82 ± 0.06^a g. The “diarrhea and rectal bleeding” value (0.01, 0.1 mg/kg, day 14) was “suppression”, the “MPO activity in colonic mucosa” value (all dose levels, 0.01, 0.1 and 1 mg/kg, vs colitis group) was “significantly decreased” and the “oxidative stress parameters (Prot CO, Tbars, GSH) in colonic tissue” value (day 13 and 14, all dose levels) was “restored”. The “increase in COX-2 and mPGES-1 mRNA synthesis by DSS” value (pre-treatment day 0 to day 7) was “suppressed”.
